In one series the test system is Borer. Briefly: Killing efficacy test against agricultural pests: borer test (leaf dip). The class given is in vivo. Conditions: after 72 h. Here is the method:
(§1) Solution preparation: 2 mg of a test compound was weighed and dissolved in 200 µL of acetone, and the sample was diluted with an aqueous solution containing 0.1% Tween 80 to a required concentration to obtain a test solution. 1. Diamondback moth test: The test sample was prepared into solutions with final concentrations of 0.0156 mg/L, 0.125 mg/L, and 1 mg/L. Fresh and clean rapeseed leaves were cut into small pieces of 3 cm × 3 cm. The leaf pieces were immersed in the solutions with different concentrations for 10s, taken out, and air-dried naturally. The treated leaf pieces were placed into Petri dishes lined with moistened filter paper. 20 third-instar larvae of the diamondback moth were introduced into each Petri dish. The Petri dishes were placed in a constant-temperature room, and mortality rates were checked after 72 h. 2. Aphid test: The test sample was prepared into solutions with final concentrations of 2 mg/L, 10 mg/L, and 50 mg/L. Fresh cotton leaves of uniform size were immersed in the solutions with different concentrations for 10s, air-dried, and placed backside up on culture plates. 100 wingless adult aphids were introduced into each culture plate. The culture plates were sealed with paper strips and placed in a constant-temperature room. Mortality rates were checked after 72 h. 3. Mite test: The test sample was prepared into solutions with final concentrations of 0.02 mg/L, 0.2 mg/L, and 2 mg/L. Filter paper treated with the test solutions was placed in Petri dishes, and about 30 mites were placed at the center of each Petri dish. 0.05 g of mite feed was added to the center of each Petri dish after 30 min. The Petri dishes were placed in a constant-temperature room, and mortality rates were checked after 72 h. 4. Borer test: The test sample was prepared into solutions with final concentrations of 0.125 mg/L, 0.5 mg/L, and 2 mg/L. Fresh leaves were cut, immersed in the solutions with different concentrations for 10s, taken out, and air-dried. The treated leaves were placed in Petri dishes, and 30 borer larvae were introduced into each Petri dish. The Petri dishes were placed in a constant-temperature room, and mortality rates were checked after 72 h.

In another series the test system is mites. In words: Mite killing efficacy test with an in vitro model. A digest of the protocol:
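Groups of 17–26 live mites were exposed 5 min at normal temperature to drug in 3% DMSO/97% water (target final 30 µM), then air-dried ~1 h. Dead/total mites were counted at 1–24 h after dosing at room temperature and high humidity. Mortality was scored ≥90% "+++", 50–90% "++", <50% "+".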

The next series concerns Mite. In words: Killing efficacy test against agricultural pests: mite test (treated filter paper). Format: in vivo, mites. To be noted: after 72 h. Here is the method: as §1
The next series has as its system Aphid. Briefly: Killing efficacy test against agricultural pests: aphid test (leaf dip). Format: in vivo, aphids. Conditions: after 72 h. As for the experimental part:
as §1

The nature of series [1]: In vivo pharmacokinetic evaluation in mice. Set-up: species or system ICR mice. Conditions: ICR, mouse, plasma; for AUC: read-out: AUC^1-24 h. Here is the method: 1. Drug preparation: 5% DMSO + 10% macrogol 15 hydroxystearate (BASF) + 85% saline (where drug solutions have a final concentration of 1.2 mg/mL for the IV group and 3 mg/mL for the PO group). 2. Experimental animals: Each group included three mice (ICR mice, SPF grade). 3. Administration method: The body weight was measured before administration, and the dose was calculated according to the body weight. The mice were administered through intravenous injection or oral gavage. 4. Blood collection: After administration, blood samples were collected in 0.083 h, 0.25 h, 0.5 h, 1 h, 2 h, 4 h, 6 h, 8 h, and 24 h. The blood samples were collected via the cheek. Each sample included about 0.05 mL of blood anticoagulated with EDTA-2K. The blood samples were placed on wet ice after collection. 5. Sample treatment: The blood samples were placed on ice after collection and centrifuged within 1 h to obtain plasma (centrifugation conditions: 6000 g, 3 min, 2-8°C). Plasma samples were stored in a -80°C refrigerator before analysis. 6. Data processing: Pharmacokinetic parameters were calculated using Phoenix WinNonlin 8.2.0 based on plasma concentration data at different time points.

In another series the test system is Diamondback moth. In words: Killing efficacy test against agricultural pests: diamondback moth test (leaf dip). Format: in vivo. To be noted: Plutella xylostella, foliar, 72 h, read-out: Corrected Mortality Rate (%). Here is the method:
as §1

Where two headings read alike, the source gives them in different places.

With `Cc1cc(C2=NO[C@@](c3cc(Cl)cc(C(F)(F)F)c3)(C(F)(F)F)C2)ccc1C(=O)NCC(=O)NC1(C(F)(F)F)CC1` [Example 008, (S)-4-(5-(3-chloro-5-(trifluoromethyl)phenyl)-5-(trifluoromethyl)-4,5-dihydroisoxazol-3-yl)-2-m ethyl-N-(2-oxo-2-((1-(trifluoromethyl)cyclopropyl)amino)ethyl)benzamide], the “Corrected Mortality Rate (%)” value is 2% in the series on Borer (0.125 mg/L); 82% in the series with Borer (0.5 mg/L); 100% with Borer (2 mg/L); 62% in the series on Mite (0.02 mg/L); 92% in the series with Mite (0.2 mg/L); 100% in the series on Mite (2 mg/L). Besides, the “Corrected Mortality Rate (%)” value is on record as 86% in the series with Aphid (2 mg/L), 100% in the series with Aphid (10 mg/L) and 100% in the series on Aphid (50 mg/L). The mortality at 30 µM with mites (4 h, read-out: Mite Mortality Rate 4 h) is over 90%; in the series with mites (24 h, read-out: Mite Mortality Rate 24 h), over 90%. In addition, the clearance in series [1] (IV (6 mg/kg)) is 0.0428 L/h/kg. Further, the results for the half-life in series [1] (IV (6 mg/kg)) and in series [1] (PO (30 mg/kg)) were 37.6 h and 31.6 h, respectively. The AUC in series [1] (IV (6 mg/kg)) worked out at 56.1 µg·h/mL; in series [1] (PO (30 mg/kg)) it was 233 µg·h/mL. In addition, the C0 in series [1] (IV (6 mg/kg), read-out: C0) was 10.3 µg/mL. Also, the Cmax in series [1] (PO (30 mg/kg), read-out: Cmax) came out at 15.3 µg/mL. The Tmax in series [1] (PO (30 mg/kg), read-out: Tmax) was determined as 9.33 h. For the same compound, the Vd in series [1] (in vivo, IV (6 mg/kg), read-out: Vss) was determined as 1.93 L/kg. In series [1] (PO (30 mg/kg) vs IV (6 mg/kg)), this compound showed a bioavailability of 83.1%. Moreover, the mortality at 0.0156 µg/mL in the series on Diamondback moth came out at 5%. Further, the mortality at 0.125 µg/mL in the series with Diamondback moth came to 100%. Also, the mortality at 1 µg/mL in the series on Diamondback moth is 100%.

The values above are taken from patent EP4741380A1, “ISOXAZOLINE COMPOUND AND USE” (priority 2024, dated 2025).
